The text below walks through data of PubChem BioAssay AID1259407 (Chemical Carcinogenesis Research Information System (CCRIS), 2018).

In the data set the test system is CCRIS mutagenicity, Ames/micronucleus/aberration tests. In words: CCRIS mutagenicity studies.
[1] abbreviates: Test System: AMES SALMONELLA TYPHIMURIUM, Strain/Indicator: TA98, Metabolic Activation: NONE, Method: STANDARD PLATE.
Where [2] appears, read: Test System: AMES SALMONELLA TYPHIMURIUM, Strain/Indicator: TA100, Metabolic Activation: NONE, Method: STANDARD PLATE.
The mark [3] stands for this setting: Test System: AMES SALMONELLA TYPHIMURIUM, Strain/Indicator: TA1535, Metabolic Activation: NONE, Method: STANDARD PLATE.
The mark [4] stands for this setting: Test System: AMES SALMONELLA TYPHIMURIUM, Strain/Indicator: TA1537, Metabolic Activation: NONE, Method: STANDARD PLATE.
Where [5] appears, read: Test System: AMES SALMONELLA TYPHIMURIUM, Strain/Indicator: TA102, Metabolic Activation: NONE, Method: PREINCUBATION

Molecules are shown by their SMILES. Activity calls are given as the source filed them. How the calls were made is not given here.

`CN=C1C=CC(=C(c2ccc(NC)cc2)c2ccc(N(C)C)cc2)C=C1`: the mutagenic call (Test System: AMES SALMONELLA TYPHIMURIUM, Strain/Indicator: TA97, Metabolic Activation: NONE, Method: STANDARD PLATE) was “inactive; negative”; the mutagenic call (Test System: AMES SALMONELLA TYPHIMURIUM, Strain/Indicator: TA97, Metabolic Activation: RAT, LIVER, S-9, AROCLOR 1254, Method: STANDARD PLATE) is “inactive; negative”; the mutagenic call under setting [1] is “inactive; negative”; the mutagenic call (Test System: AMES SALMONELLA TYPHIMURIUM, Strain/Indicator: TA98, Metabolic Activation: RAT, LIVER, S-9, AROCLOR 1254, Method: STANDARD PLATE) was “inactive; negative”; the mutagenic call under setting [2] was “inactive; negative”; the mutagenic call (Test System: AMES SALMONELLA TYPHIMURIUM, Strain/Indicator: TA100, Metabolic Activation: RAT, LIVER, S-9, AROCLOR 1254, Method: STANDARD PLATE) is “inactive; negative”. The mutagenic call by setting is: (Test System: AMES SALMONELLA TYPHIMURIUM, Strain/Indicator: TA104, Metabolic Activation: NONE, Method: STANDARD PLATE) “inactive; negative”; (Test System: AMES SALMONELLA TYPHIMURIUM, Strain/Indicator: TA104, Metabolic Activation: RAT, LIVER, S-9, AROCLOR 1254, Method: STANDARD PLATE) “inactive; negative”.

With `O=[N+]([O-])c1ccc2c(CCO)c[nH]c2c1`, the mutagenic call was “active; positive” (Test System: AMES SALMONELLA TYPHIMURIUM, Strain/Indicator: TA97A, Metabolic Activation: NONE, Method: STANDARD PLATE); “active; positive” (Test System: AMES SALMONELLA TYPHIMURIUM, Strain/Indicator: TA98(1,8-DNP6), Metabolic Activation: NONE, Method: STANDARD PLATE); “active; positive” (Test System: AMES SALMONELLA TYPHIMURIUM, Strain/Indicator: TA98(NR), Metabolic Activation: NONE, Method: STANDARD PLATE); “active; positive” (Test System: AMES SALMONELLA TYPHIMURIUM, Strain/Indicator: TA98, Metabolic Activation: NONE, Method: SEM (1.1) 100-2000 NM (TEST MATERIAL SOLVENT: DMSO) 100-2000 N 2000 N); “active; positive” under setting [2]; “inactive; negative” under setting [3]. For the same compound, under setting [4], the mutagenic call is “active; positive”.

For `CCCCNc1snc2ccccc12`, the mutagenic call by setting is: under setting [1], “inactive; negative”; (Test System: AMES SALMONELLA TYPHIMURIUM, Strain/Indicator: TA98, Metabolic Activation: S-9, Method: STANDARD PLATE) “inactive; negative”; under setting [2], “inactive; negative”; (Test System: AMES SALMONELLA TYPHIMURIUM, Strain/Indicator: TA100, Metabolic Activation: S-9, Method: STANDARD PLATE) “inactive; negative”; under setting [3], “inactive; negative”; (Test System: AMES SALMONELLA TYPHIMURIUM, Strain/Indicator: TA1535, Metabolic Activation: S-9, Method: STANDARD PLATE) “inactive; negative”. Moreover, the mutagenic call is, setting by setting: under setting [4], “inactive; negative”; (Test System: AMES SALMONELLA TYPHIMURIUM, Strain/Indicator: TA1537, Metabolic Activation: S-9, Method: STANDARD PLATE) “inactive; negative”.

`OC[C@H]1O[C@@H](OC2[C@@H](CO)O[C@H](O)[C@H](O)[C@H]2O)[C@H](O)[C@@H](O)C1O[C@@H]1O[C@H](CO)[C@@H](O)[C@H](O)[C@H]1O` (stereo partly specified): the mutagenic call was “inactive; negative” (End Point: IN VIVO CHROMOSOMAL ABERRATIONS, Test System: BONE MARROW CELLS, Species: MOUSE, Strain/Sex: CD-1, MALE, Route: IP) and “inactive; negative” (End Point: IN VIVO CHROMOSOMAL ABERRATIONS, Test System: SPERMATOGONIAL CELLS, Species: MOUSE, Strain/Sex: CD-1, MALE, Route: IP).

Regarding `Cn1ccnc1[N+](=O)[O-]`, the mutagenic call under setting [2] was “active; positive”.

Turning to `CC(=O)OC/N=[N+](/C)[O-]`, the mutagenic call was “active; positive” (Test System: AMES SALMONELLA TYPHIMURIUM, Strain/Indicator: G46, Metabolic Activation: NONE, Method: PREINCUBATION); “active; positive” under setting [3]; “active; positive” (Test System: CHINESE HAMSTER V-79, Strain/Indicator: V-79/OUABAIN, Metabolic Activation: NONE, Method: STANDARD PLATE); “inactive; negative” (Test System: E. COLI, Strain/Indicator: WP2 UVRA, Metabolic Activation: HAMSTER, LIVER, S-9, AROCLOR 1254, Method: PREINCUBATION); “inactive; negative” (Test System: E. COLI, Strain/Indicator: WP2 UVRA, Metabolic Activation: HAMSTER, LIVER, S-9, AROCLOR 1254, Method: STANDARD PLATE); “inactive; negative” (Test System: E. COLI, Strain/Indicator: WP2 UVRA, Metabolic Activation: HAMSTER, LIVER, S-9, Method: PREINCUBATION). Also, the mutagenic call is “inactive; negative” (Test System: E. COLI, Strain/Indicator: WP2 UVRA, Metabolic Activation: HAMSTER, LIVER, S-9, Method: STANDARD PLATE); “inactive; negative” (Test System: E. COLI, Strain/Indicator: WP2 UVRA, Metabolic Activation: MOUSE, LIVER, S-9, AROCLOR 1254, Method: PREINCUBATION); “inactive; negative” (Test System: E. COLI, Strain/Indicator: WP2 UVRA, Metabolic Activation: MOUSE, LIVER, S-9, AROCLOR 1254, Method: STANDARD PLATE); “inactive; negative” (Test System: E. COLI, Strain/Indicator: WP2 UVRA, Metabolic Activation: MOUSE, LIVER, S-9, Method: PREINCUBATION); “inactive; negative” (Test System: E. COLI, Strain/Indicator: WP2 UVRA, Metabolic Activation: MOUSE, LIVER, S-9, Method: STANDARD PLATE); “inactive; negative” (Test System: E. COLI, Strain/Indicator: WP2 UVRA, Metabolic Activation: NONE, Method: PREINCUBATION). Moreover, the mutagenic call (Test System: E. COLI, Strain/Indicator: WP2 UVRA, Metabolic Activation: NONE, Method: STANDARD PLATE) is “inactive; negative”; the mutagenic call (Test System: E. COLI, Strain/Indicator: WP2 UVRA, Metabolic Activation: RAT, LIVER, S-9, AROCLOR 1254, Method: PREINCUBATION) was “inactive; negative”; the mutagenic call (Test System: E. COLI, Strain/Indicator: WP2 UVRA, Metabolic Activation: RAT, LIVER, S-9, AROCLOR 1254, Method: STANDARD PLATE) is “inactive; negative”; the mutagenic call (Test System: E. COLI, Strain/Indicator: WP2 UVRA, Metabolic Activation: RAT, LIVER, S-9, Method: PREINCUBATION) was “inactive; negative”; the mutagenic call (Test System: E. COLI, Strain/Indicator: WP2 UVRA, Metabolic Activation: RAT, LIVER, S-9, Method: STANDARD PLATE) is “inactive; negative”; the mutagenic call (Test System: MOUSE LYMPHOMA, Strain/Indicator: L5178Y (TK+/TK-), Metabolic Activation: NONE, Method: SUSPENSION/PLATE) was “active; positive”. Also, the mutagenic call (Test System: MOUSE LYMPHOMA, Strain/Indicator: L5178Y (TK+/TK-), Metabolic Activation: RAT, LIVER, S-9, AROCLOR 1254, Method: SUSPENSION/PLATE) is “active; positive”.

Turning to `O=C1O[C@H]([C@H](O)CO)C(O)=C1O`, the mutagenic call reads like this: (End Point: IN VIVO MICRONUCLEUS, Test System: BONE MARROW POLYCHROMATIC ERYTHROCYTES, Species: MOUSE, Strain/Sex: DDY/MALE, Route: IP) “inactive; negative”; (Test System: AMES SALMONELLA TYPHIMURIUM, Strain/Indicator: TA97, Metabolic Activation: NONE, Method: PREINCUBATION) “inactive; negative”; (Test System: AMES SALMONELLA TYPHIMURIUM, Strain/Indicator: TA97, Metabolic Activation: RAT, LIVER, S-9, AROCLOR 1254, Method: PREINCUBATION) “inactive; negative”; under setting [5], “inactive; negative”; (Test System: AMES SALMONELLA TYPHIMURIUM, Strain/Indicator: TA102, Metabolic Activation: RAT, LIVER, S-9, AROCLOR 1254, Method: PREINCUBATION) “inactive; negative”.

As for `CC(C)(N=O)[N+](=O)[O-]`, the mutagenic call runs as follows: (Test System: AMES SALMONELLA TYPHIMURIUM, Strain/Indicator: TA98, Metabolic Activation: NONE, Method: PREINCUBATION) “active; positive”; (Test System: AMES SALMONELLA TYPHIMURIUM, Strain/Indicator: TA98, Metabolic Activation: RAT, LIVER, S-9, AROCLOR, Method: PREINCUBATION) “inactive; negative”; (Test System: AMES SALMONELLA TYPHIMURIUM, Strain/Indicator: TA100, Metabolic Activation: NONE, Method: PREINCUBATION) “inactive; negative”; (Test System: AMES SALMONELLA TYPHIMURIUM, Strain/Indicator: TA100, Metabolic Activation: RAT, LIVER, S-9, AROCLOR, Method: PREINCUBATION) “inactive; negative”; under setting [5], “inactive; negative”; (Test System: AMES SALMONELLA TYPHIMURIUM, Strain/Indicator: TA102, Metabolic Activation: RAT, LIVER, S-9, AROCLOR, Method: PREINCUBATION) “inactive; negative”.
